{
  "source": "paper PMC3901259",
  "about": "“Characterisation of the Metabolites of 1,8-Cineole Transferred into Human Milk: Concentrations and Ratio of Enantiomers” (Metabolites, 2013)",
  "origin": "cited, not measured here",
  "key": {"[1]": {"parameters": "method as in PMID 22405404", "details": "cited from earlier work"}, "rats": {"system": "rats", "parameters": "method as in PMID 6068552", "details": "cited from earlier work"}},
  "note": "Like-named read-outs stand apart in the source and are kept apart here.",
  "data": [
    {"smiles": "CC12CCC(CC1)C(C)(C)O2", "note": "[1,8-cineole, 1,8-Cineole]", "values": [
      {"measurement": "Concentration of 1,8-cineole in human milk", "setting": "[1]; sample A-1a (no odour), beyond calibration range, approximation", "value": 2.43, "unit": "µg/kg"},
      {"measurement": "1,8-cineole: concentration calculated with the last calibration point (limit in parentheses)", "setting": "[1]; sample A-1a (no odour)", "value": "< 13.65", "unit": "µg/kg"},
      {"measurement": "Concentration of 1,8-cineole in human milk", "setting": "[1]; sample A-1b (odour yes)", "value": 134.72, "unit": "µg/kg"},
      {"measurement": "Concentration of 1,8-cineole in human milk", "setting": "[1]; sample B-1 (odour yes)", "value": 399.39, "unit": "µg/kg"},
      {"measurement": "Concentration of 1,8-cineole in human milk", "setting": "[1]; sample B-2a (no odour)", "value": 0.98, "unit": "µg/kg"},
      {"measurement": "Concentration of 1,8-cineole in human milk", "setting": "[1]; sample B-2b (odour yes)", "value": 70.97, "unit": "µg/kg"},
      {"measurement": "Concentration of 1,8-cineole in human milk", "setting": "[1]; sample B-2c (no odour)", "value": 14.82, "unit": "µg/kg"},
      {"measurement": "Concentration of 1,8-cineole in human milk", "setting": "[1]; sample C (no odour)", "value": 13.56, "unit": "µg/kg"},
      {"measurement": "Concentration of 1,8-cineole in human milk", "setting": "[1]; sample D-1 (no odour), beyond calibration range, approximation", "value": 5.75, "unit": "µg/kg"},
      {"measurement": "1,8-cineole: concentration calculated with the last calibration point (limit in parentheses)", "setting": "[1]; sample D-1 (no odour)", "value": "< 10.59", "unit": "µg/kg"},
      {"measurement": "Concentration of 1,8-cineole in human milk", "setting": "[1]; sample D-2 (odour yes)", "value": 226.09, "unit": "µg/kg"},
      {"measurement": "Concentration of 1,8-cineole in human milk", "setting": "[1]; sample E-1 (no odour), beyond calibration range, approximation", "value": 3.19, "unit": "µg/kg"},
      {"measurement": "1,8-cineole: concentration calculated with the last calibration point (limit in parentheses)", "setting": "[1]; sample E-1 (no odour)", "value": "< 13.18", "unit": "µg/kg"},
      {"measurement": "Concentration of 1,8-cineole in human milk", "setting": "[1]; sample E-2 (odour yes)", "value": 504.93, "unit": "µg/kg"},
      {"measurement": "Concentration of 1,8-cineole in human milk", "setting": "[1]; sample F (no odour), two capsules, beyond calibration range, approximation", "value": 20.23, "unit": "µg/kg"},
      {"measurement": "1,8-cineole: concentration calculated with the last calibration point (limit in parentheses)", "setting": "[1]; sample F (no odour), two capsules", "value": "< 26.14", "unit": "µg/kg"},
      {"measurement": "Concentration of 1,8-cineole in human milk", "setting": "[1]; sample G (odour yes)", "value": 194.46, "unit": "µg/kg"},
      {"measurement": "acute oral LD50", "setting": "rats", "value": 2.5, "unit": "g/kg bodyweight"}
    ]}
  ]
}
